{"source": "patent US20190276399A1", "about": "“POLYMORPH OF NINTEDANIB” (Olon S.P.A., priority 2016, published 2019)", "assay": "solubility in organic solvents and in water", "assay_type": "physicochemical", "conditions": "in various organic solvents and in water; compared with nintedanib ethanesulphonate hemihydrate form known from WO 2004/013099", "data": [{"smiles": "COC(=O)c1ccc2c(c1)NC(=O)/C2=C(\\Nc1ccc(N(C)C(=O)CN2CCN(C)CC2)cc1)c1ccccc1", "note": "[methyl-(3Z)-3-{[(4-{methyl[(4-methylpiperazin-1-yl)acetyl]amino}phenyl)amino](phenyl)methylidene}-2-oxo-2,3-dihydro-1H-indole-6-carboxylate]", "values": [{"measurement": "solubility", "result": "better solubility in various organic solvents and in water"}]}]}
